According to ChEMBL document CHEMBL4828775, “Antimicrobial and Cytotoxic Angucyclic Quinones from Actinomadura miaoliensis” (J Nat Prod, 2021):
In brackets after ≈: the same amount, converted by molar mass.

Key:
[1] = system: Plasmodium falciparum; assay: Antimalarial activity against Plasmodium falciparum K1 assessed as inhibition of parasite growth by microculture radioisotope technique; type: functional, organism-based
[2] = system: Mycobacterium tuberculosis; assay: Antitubercular activity against Mycobacterium tuberculosis H37Ra assessed as inhibition of bacterial growth by green fluorescent protein based method; type: functional
[3] = system: Staphylococcus aureus; assay: Antibacterial activity against Staphylococcus aureus assessed as inhibition of bacterial growth by CLSI based microdilution method; type: functional
[4] = system: Acinetobacter baumannii; assay: Antibacterial activity against Acinetobacter baumannii assessed as inhibition of bacterial growth by CLSI based microdilution method; type: functional
[5] = system: Alternaria brassicicola; assay: Antifungal activity against Alternaria brassicicola assessed as inhibition of fungal growth by CLSI based microdilution method; type: functional
[6] = system: Curvularia lunata; assay: Antifungal activity against Curvularia lunata assessed as inhibition of fungal growth by CLSI based microdilution method; type: functional
[7] = system: MCF7; assay: Cytotoxicity against human MCF7 cells assessed as reduction in cell viability by resazurin microplate assay; type: functional, cell-based
[8] = system: NCI-H187; assay: Cytotoxicity against human NCI-H187 cells assessed as reduction in cell viability by resazurin microplate assay; type: functional, cell-based
[9] = system: Vero; assay: Cytotoxicity against African green monkey Vero cells assessed as reduction in cell viability by resazurin microplate assay; type: cell-based; conditions: Chlorocebus sabaeus

| SMILES | IC50 [1] [nM] | MIC [2] [µM] | MIC [3] [µM] | MIC [4] [µM] | MIC [5] [µM] | MIC [6] [µM] | IC50 [7] [µM] | IC50 [8] [µM] | IC50 [9] [µM] |
| --- | --- | --- | --- | --- | --- | --- | --- | --- | --- |
| CC1=CC(=O)[C@@H]2[C@H]3[C@H](CC[C@]2(O)C1)C(=O)c1c(O)cccc1[C@@H]3O | 28300 | 9.5 (≈ 3.12 µg/mL) | > 150 | > 150 | > 150 | > 150 | > 150 | > 150 | 147 |
| CC1=CC(=O)[C@@H]2C3=C(CC[C@]2(O)C1)C(=O)c1c(O)cccc1C3=O | 2200 | 0.6 (≈ 0.195 µg/mL) | > 150 | > 150 | > 150 | > 150 | 2.2 | 2.2 | 1.8 |
| CC1=C[C@@H](O)[C@H]2[C@](O)(CC[C@]3(O)C(=O)c4c(O)cccc4[C@H](O)[C@@]23O)C1 | > 28000 | 138 (≈ 50 µg/mL) | > 138 | > 138 | > 138 | > 138 | > 138 | > 138 | > 138 |
| Cc1ccc2c3c(ccc2c1)C(=O)c1c(O)cccc1C3=O | > 35000 | 10.9 (≈ 3.14 µg/mL) | > 150 | > 150 | > 150 | > 150 | 55.3 | 83.3 | 35.4 |
| CC1=C[C@@H]2O[C@]34CC[C@](O)(C1)[C@H]2[C@]3(O)[C@@H](O)c1cccc(O)c1C4=O | > 28000 | 145 (≈ 50 µg/mL) | > 145 | > 145 | > 145 | > 145 | > 145 | > 145 | > 145 |
| Cc1cc(O)c2c(c1)CCC1=C2C(=O)c2cccc(O)c2C1=O | 2600 | 0.3 (≈ 0.0919 µg/mL) | > 150 | > 150 | > 150 | > 150 | 1.1 | 3 | 1.4 |
| CC1=C[C@@H](O)[C@@H]2C3=C(CC[C@]2(O)C1)C(=O)c1c(O)cccc1C3=O | 2500 | 2.4 (≈ 0.783 µg/mL) | > 150 | > 150 | > 150 | > 150 | 3.4 | 2.3 | 1.1 |
| C[C@@H]1[C@H](O)[C@@H](C)/C=C/C=C/C=C/C=C/C=C/C=C/C=C/[C@H](O[C@@H]2O[C@H](C)[C@@H](O)[C@H](N)[C@@H]2O)C[C@@H]2O[C@](O)(C[C@@H](O)C[C@@H](O)[C@H](O)CC[C@@H](O)C[C@@H](O)CC(=O)O[C@H]1C)C[C@H](O)[C@H]2C(=O)O [AMPHOTERICIN B] | – | – | – | – | 0.8 (≈ 0.739 µg/mL) | 1.7 (≈ 1.57 µg/mL) | – | – | – |
| C[C@H]1[C@@H](O)O[C@@H]2O[C@@]3(C)CC[C@H]4[C@H](C)CC[C@@H]1[C@@]24OO3 [ARTENIMOL] | 2 | – | – | – | – | – | – | – | – |
| Cc1c2ccncc2c(C)c2c1[nH]c1ccccc12 [ELLIPTECINE] | – | – | – | – | – | – | – | 13.7 | 4.5 |
| CC[C@H]1OC(=O)[C@H](C)[C@@H](O[C@H]2C[C@@](C)(OC)[C@@H](O)[C@H](C)O2)[C@H](C)[C@@H](O[C@@H]2O[C@H](C)C[C@H](N(C)C)[C@H]2O)[C@](C)(O)C[C@@H](C)C(=O)[C@H](C)[C@@H](O)[C@]1(C)O [ERYTHROMYCIN] | – | – | – | 8.5 (≈ 6.24 µg/mL) | – | – | – | – | – |
| NNC(=O)c1ccncc1 [ISONIAZID] | – | 0.5 (≈ 0.0686 µg/mL) | – | – | – | – | – | – | – |
| CO[C@H]1/C=C/O[C@@]2(C)Oc3c(C)c(O)c4c(O)c(c(/C=N/N5CCN(C)CC5)c(O)c4c3C2=O)NC(=O)/C(C)=C\C=C\[C@H](C)[C@H](O)[C@@H](C)[C@@H](O)[C@@H](C)[C@H](OC(C)=O)[C@@H]1C [RIFAMPIN] | – | 0.006 (≈ 0.00494 µg/mL) | 1.9 (≈ 1.56 µg/mL) | 3.8 (≈ 3.13 µg/mL) | – | – | – | – | – |
| Cc1cc(O)c2c3c(ccc2c1)C(=O)c1c(O)cccc1C3=O [TETRANGULOL] | 5900 | 2.6 (≈ 0.791 µg/mL) | > 150 | > 150 | > 150 | > 150 | 18 | 17.1 | 4.4 |
| CN[C@H](CC(C)C)C(=O)N[C@H]1C(=O)N[C@@H](CC(N)=O)C(=O)N[C@H]2C(=O)N[C@H]3C(=O)N[C@H](C(=O)N[C@H](C(=O)O)c4cc(O)cc(O)c4-c4cc3ccc4O)[C@H](O)c3ccc(c(Cl)c3)Oc3cc2cc(c3O[C@@H]2O[C@H](CO)[C@@H](O)[C@H](O)[C@H]2O[C@H]2C[C@](C)(N)[C@H](O)[C@H](C)O2)Oc2ccc(cc2Cl)[C@H]1O [VANCOMYCIN] | – | – | 0.3 (≈ 0.435 µg/mL) | – | – | – | – | – | – |
